Patent publication US20130035329A1, “THERAPEUTICALLY ACTIVE COMPOSITIONS AND THEIR METHODS OF USE” (priority 2009, published 2013)
pIC50: −log10 of the molar value.

Legend:
IDH1 R132H = IDH1 R132H (Homo sapiens, UniProt O75874, R132H); assay: High Throughput Screening (HTS) for IDH1 R132H inhibitors (resazurin/NADPH fluorescence assay); assay type: biochemical; details: IDH1m
Description: A compound described herein may be an inhibitor of IDH1m. […] B refers to an inhibitor of IDH1m with an IC50 between 1 μM and 50 μM. C refers to an inhibitor of IDH1m with an IC50 greater than 50 μM. D refers to a compound wherein an IC50 is not available.
Assays were conducted in a volume of 76 μl assay buffer (150 mM NaCl, 10 mM MgCl2, 20 mM Tris pH 7.5, 0.03% bovine serum albumin) as follows in a standard 384-well plate: To 25 ul of substrate mix (8 uM NADPH, 2 mM aKG), 1 μl of test compound was added in DMSO. The plate was centrifuged briefly, and then 25 μl of enzyme mix was added (0.2 μg/ml ICDH1 R132H) followed by a brief centrifugation and shake at 100 RPM. The reaction was incubated for 50 minutes at room temperature, then 25 μl of detection mix (30 μM resazurin, […]) was added and the mixture further incubated for 5 minutes at room temperature. The conversion of resazurin to resorufine was detected by fluorescent spectroscopy at Ex544 Em590 c/o 590.

recurrent glioma = recurrent glioma patients; bevacizumab used with irinotecan; cited from earlier work
[1] = assay similar to Example 1, class symbols

Sequence of IDH1 R132H (O75874 whole entry R132H): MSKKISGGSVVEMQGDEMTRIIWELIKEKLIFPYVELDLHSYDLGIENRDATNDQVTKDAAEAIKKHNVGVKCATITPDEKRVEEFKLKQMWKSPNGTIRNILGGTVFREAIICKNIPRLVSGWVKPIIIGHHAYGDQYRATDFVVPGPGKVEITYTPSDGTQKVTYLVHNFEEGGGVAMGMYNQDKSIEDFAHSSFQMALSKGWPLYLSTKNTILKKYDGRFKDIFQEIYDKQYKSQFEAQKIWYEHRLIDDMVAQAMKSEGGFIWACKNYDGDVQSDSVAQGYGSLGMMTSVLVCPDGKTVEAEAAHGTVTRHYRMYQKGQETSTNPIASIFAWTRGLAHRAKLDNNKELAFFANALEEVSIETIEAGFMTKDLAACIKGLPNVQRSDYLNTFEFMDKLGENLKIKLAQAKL

Row | Compound | pIC50 (IDH1 R132H; [1]) | also measured
1 | CCCCc1ccc(NS(=O)(=O)c2ccc(C)c(C(=O)N3CCN(c4ccccc4C(F)(F)F)CC3)c2)cc1 | 4.30 to 6.00 | 
2 | COCOc1ccc(NS(=O)(=O)c2ccc(C)c(C(=O)N3CCN(c4ccccc4OC)CC3)c2)cc1 | 4.30 to 6.00 | 
3 | COCCOCOc1ccc(NS(=O)(=O)c2ccc(C)c(C(=O)N3CCN(c4ccccc4OC)CC3)c2)cc1 | 4.30 to 6.00 | 
4 | CCCCOc1ccc(NS(=O)(=O)c2ccc(C)c(C(=O)N3CCN(c4ccccc4OC)CC3)c2)c(C)c1C | 4.30 to 6.00 | 
5 | CCCCc1ccc(NS(=O)(=O)c2cc3c(c(C(=O)N4CCN(c5ccccc5OC)CC4)c2)OCCO3)cc1 | 4.30 to 6.00 | 
6 | COc1ccc(NS(=O)(=O)c2ccc(C)c(C(=O)N3CCN(c4ccccc4)CC3)c2)cc1 |  | pIC50 (IDH1 R132H; number printed in Table 1 instead of a class symbol): 4.29
7 | bevacizumab: "The anti-angiogenic agent bevacizumab"; listed among "exemplary antibodies" |  | 6-month survival (recurrent glioma): 46%

Continued, in another order:

Row | pIC50 (IDH1 R132H; [1]) | Compound | also measured
8 | 4.30 to 6.00 | CCCCc1ccc(NS(=O)(=O)c2ccc(C)c(C(=O)N3CCN(c4ccccc4)CC3)c2)cc1 | 
9 | 4.30 to 6.00 | CCCCc1ccc(NS(=O)(=O)c2ccc(C)c(C(=O)N3CCN(c4ccc(F)c(OC)c4)CC3)c2)cc1 | 
10 | 4.30 to 6.00 | CCCCc1ccc(NS(=O)(=O)c2ccc(C)c(C(=O)N3CCN(c4ccccc4Br)CC3)c2)cc1 | 
11 | 4.30 to 6.00 | COc1ccccc1N1CCN(C(=O)c2cc(S(=O)(=O)Nc3ccc4[nH]ccc4c3)ccc2C)CC1 | 
